Test results taken from ChEMBL document CHEMBL5380861, “Design and Synthesis of Orexin 1 Receptor-Selective Agonists” (J Med Chem, 2023).

Experiments:
[1] = target: T1, Orexin/Hypocretin receptor type 1 (Homo sapiens, UniProt O43613)
T1 sequence (O43613 whole entry): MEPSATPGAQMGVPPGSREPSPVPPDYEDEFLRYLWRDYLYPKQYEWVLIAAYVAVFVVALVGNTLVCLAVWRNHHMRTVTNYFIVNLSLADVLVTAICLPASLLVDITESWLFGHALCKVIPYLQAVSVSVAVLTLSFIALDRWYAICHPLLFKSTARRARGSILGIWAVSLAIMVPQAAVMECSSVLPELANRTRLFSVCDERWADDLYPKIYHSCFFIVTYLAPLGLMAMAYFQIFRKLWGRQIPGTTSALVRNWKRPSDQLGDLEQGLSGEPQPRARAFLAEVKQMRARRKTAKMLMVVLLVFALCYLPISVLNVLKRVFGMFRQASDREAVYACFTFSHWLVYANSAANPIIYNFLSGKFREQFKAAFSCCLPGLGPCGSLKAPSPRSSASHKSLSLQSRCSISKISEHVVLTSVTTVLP
Description: Agonist activity at human OX1R expressed in CHO-K1 cells assessed as increase in intracellular calcium

Orexin receptor type 2 [2] = target: T2, Orexin receptor type 2 (Homo sapiens, UniProt O43614)
T2 sequence (O43614 whole entry): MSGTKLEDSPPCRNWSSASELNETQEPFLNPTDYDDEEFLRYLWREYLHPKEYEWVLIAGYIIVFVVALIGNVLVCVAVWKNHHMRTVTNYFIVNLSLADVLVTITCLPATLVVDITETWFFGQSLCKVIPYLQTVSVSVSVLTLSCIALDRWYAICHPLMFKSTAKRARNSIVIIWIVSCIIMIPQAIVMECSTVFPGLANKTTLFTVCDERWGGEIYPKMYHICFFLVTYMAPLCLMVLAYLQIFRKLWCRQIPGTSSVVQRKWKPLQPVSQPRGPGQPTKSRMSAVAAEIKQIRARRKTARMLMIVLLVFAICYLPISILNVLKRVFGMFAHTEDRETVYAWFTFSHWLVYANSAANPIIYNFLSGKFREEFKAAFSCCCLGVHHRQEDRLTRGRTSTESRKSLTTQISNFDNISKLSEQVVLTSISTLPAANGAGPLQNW
Description: Agonist activity at human OX2R expressed in CHO-K1 cells assessed as increase in intracellular calcium

[3] = Drug concentration in mouse brain at 40 mg/kg, sc; format: ADME, organism-based; settings: in vivo
[4] = Drug concentration in mouse plasma at 40 mg/kg, sc; format: ADME, organism-based; settings: in vivo
[5] = target: T3, Orexin/Hypocretin receptor type 1 (Mus musculus, UniProt P58307); assay: Agonist activity at mouse OX1R expressed in HEK293 cells by AP-TGFalpha reporter assay
T3 sequence (P58307 whole entry): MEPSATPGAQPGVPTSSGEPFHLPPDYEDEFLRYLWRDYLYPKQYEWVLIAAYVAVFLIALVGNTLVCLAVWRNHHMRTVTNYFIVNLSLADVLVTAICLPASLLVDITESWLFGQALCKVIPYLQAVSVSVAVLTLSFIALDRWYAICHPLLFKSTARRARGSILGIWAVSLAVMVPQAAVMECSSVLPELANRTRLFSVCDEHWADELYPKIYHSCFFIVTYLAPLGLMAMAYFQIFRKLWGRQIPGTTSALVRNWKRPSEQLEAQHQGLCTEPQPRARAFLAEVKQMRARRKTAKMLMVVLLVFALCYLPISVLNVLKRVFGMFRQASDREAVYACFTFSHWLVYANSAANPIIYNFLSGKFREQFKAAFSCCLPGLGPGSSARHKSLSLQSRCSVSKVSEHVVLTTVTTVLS

Orexin receptor type 2 [6] = target: T4, Orexin receptor type 2 (Mus musculus, UniProt P58308); assay: Agonist activity at mouse OX2R expressed in HEK293 cells by AP-TGFalpha reporter assay
T4 sequence (P58308 whole entry): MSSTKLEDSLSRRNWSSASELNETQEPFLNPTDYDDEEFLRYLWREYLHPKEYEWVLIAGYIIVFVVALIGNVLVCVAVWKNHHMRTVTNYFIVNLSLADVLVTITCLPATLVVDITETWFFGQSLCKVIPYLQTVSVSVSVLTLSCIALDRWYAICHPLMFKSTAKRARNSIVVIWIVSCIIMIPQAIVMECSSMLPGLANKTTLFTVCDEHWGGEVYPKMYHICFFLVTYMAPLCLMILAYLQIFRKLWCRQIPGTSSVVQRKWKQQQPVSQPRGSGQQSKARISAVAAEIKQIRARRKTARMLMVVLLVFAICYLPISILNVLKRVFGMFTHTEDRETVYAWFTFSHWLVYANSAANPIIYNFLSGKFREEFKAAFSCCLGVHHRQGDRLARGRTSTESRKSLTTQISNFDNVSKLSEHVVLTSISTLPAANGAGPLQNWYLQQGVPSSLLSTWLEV

[7] = target: T1, Orexin/Hypocretin receptor type 1; assay: Agonist activity at OX1R (unknown origin)
[8] = Ratio of drug concentration in mouse brain to plasma at 40 mg/kg, sc

| SMILES | EC50 [1] [nM] | EC50 (Orexin receptor type 2 [2]) [nM] | also measured |
| --- | --- | --- | --- |
| CCCCNC(=O)/C=C/c1ccc(OC)c(S(=O)(=O)Nc2ccc3c(c2)C(N(C)C(=O)Cc2cccc(OC)c2)CCC3)c1 (centres undefined) | 573 | > 10000 | – |
| COCCNC(=O)/C=C/c1ccc(OC)c(S(=O)(=O)Nc2ccc3c(c2)C(N(C)C(=O)Cc2cccc(OC)c2)CCC3)c1 (centres undefined) | 476 | > 10000 | – |
| COc1cccc(CC(=O)N(C)C2CCCc3ccc(NS(=O)(=O)c4cc(/C=C/C(=O)N(C)c5ccncc5)ccc4OC)cc32)c1 (centres undefined) | 187 | 275 | – |
| COc1cccc(CC(=O)N(C)C2CCCc3ccc(NS(=O)(=O)c4cc(/C=C/C(=O)Nc5ccncc5)ccc4OC)cc32)c1 (racemic) | 15.3 | – | – |
| COc1cccc(CC(=O)N(C)C2CCCc3ccc(NS(=O)(=O)c4cc(C(=O)N(C)C)ccc4OC)cc32)c1 (centres undefined) | 607 | 146 | – |
| CNC(=O)/C=C/c1ccc(OC)c(S(=O)(=O)Nc2ccc3c(c2)C(N(C)C(=O)Cc2cccc(OC)c2)CCC3)c1 (centres undefined) | 501 | > 10000 | – |
| COc1cccc(CC(=O)N(C)C2CCCc3ccc(NS(=O)(=O)c4cc(CCCC(=O)N(C)C)ccc4OC)cc32)c1 (centres undefined) | – | 1020 | – |
| COc1cccc(CC(=O)N(C)C2CCCc3ccc(NS(=O)(=O)c4cc(/C=C/C(=O)Nc5ccccn5)ccc4OC)cc32)c1 (centres undefined) | 201 | 955 | – |
| COc1cccc(CC(=O)N(C)C2CCCc3ccc(NS(=O)(=O)c4cc(CCC(=O)N(C)C)ccc4OC)cc32)c1 (centres undefined) | 1760 | – | – |
| COc1cccc(CC(=O)N(C)C2CCCc3ccc(NS(=O)(=O)c4cc(CC(=O)N(C)C)ccc4OC)cc32)c1 (centres undefined) | 1040 | – | – |
| COc1cccc(CC(=O)N(C)C2CCCc3ccc(NS(=O)(=O)c4cc(/C=C/C(=O)Nc5cccnc5)ccc4OC)cc32)c1 (centres undefined) | 43.4 | 295 | – |
| COc1cccc(CC(=O)N(C)C2CCCc3ccc(NS(=O)(=O)c4cc(/C=C/C(=O)NCCN(C)C)ccc4OC)cc32)c1 (centres undefined) | 271 | 2410 | – |
| COc1cccc(CC(=O)N(C)[C@@H]2CCCc3ccc(NS(=O)(=O)c4cc(/C=C/C(=O)Nc5ccncc5)ccc4OC)cc32)c1 | 747 | – | Ct [3]: 137 pmol/g; concentration [4]: 32 µM; EC50 [5]: 154 nM; EC50 (Orexin receptor type 2 [6]): 457 nM |
| COc1cccc(CC(=O)N(C)[C@H]2CCCc3ccc(NS(=O)(=O)c4cc(/C=C/C(=O)Nc5ccncc5)ccc4OC)cc32)c1 | 3590 | – | – |
| COc1ccc(-c2cccc(C(=O)N(C)C)c2)cc1S(=O)(=O)Nc1cccc(CCNC(=O)c2ccccc2-n2nccn2)c1 | – | – | EC50 [7]: 36000 nM |
| COc1cccc(CC(=O)N(C)C2CCCc3ccc(NS(=O)(=O)c4cc(/C=C/C(=O)Nc5ccccc5)ccc4OC)cc32)c1 (centres undefined) | 472 | 3290 | – |
| COc1cccc(CC(=O)N(C)C2CCCc3ccc(NS(=O)(=O)c4cc(-c5ccccc5)ccc4OC)cc32)c1 (centres undefined) | 5920 | 1290 | – |
| COc1cccc(CC(=O)N(C)[C@@H]2CCCc3ccc(NS(=O)(=O)c4cc(-c5cccc(C(=O)N(C)C)c5)ccc4OC)cc32)c1 | – | – | Ct [3]: 61.1 pmol/g; concentration [4]: 25 µM; Kp [8]: 0.002; EC50 [5]: 174 nM; EC50 (Orexin receptor type 2 [6]): 69 nM |
| COc1cccc(CC(=O)N(C)C2CCCc3ccc(NS(=O)(=O)c4cc(/C=C/C(N)=O)ccc4OC)cc32)c1 (centres undefined) | 581 | – | – |
| COc1cccc(CC(=O)N(C)C2CCCc3ccc(NS(=O)(=O)c4cc(/C=C/C(=O)N(C)C)ccc4OC)cc32)c1 (centres undefined) | 1280 | > 10000 | – |
